According to PubChem BioAssay AID1963858 (Molecular Pharmacology Branch, DTP, NCI, 2024):

Test system: HOP-62 multicell spheroids with HUVEC/MSC, viability
Assay: Anticancer human tumor HOP-62 cell line growth inhibition [KRAS2];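 also: viability read after a week of compound exposure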;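 as to viability, T/C: 100% = DMSO vehicle-treated spheroids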
Details: for viability, T/C: stronger effect = lower value
Source text: Multicellular complex tumor spheroid response to RAS pathway inhibitors in combination with a targeted agents in patient-derived cell lines with oncogenic KRAS variants from multiple cancer types
A high-throughput screen of multi-cell type tumor spheroids was designed to identify active combinations of targeted small molecules and KRAS pathway inhibitors. Complex spheroids include a stromal component modeled by human endothelial cells (HUVEC) and fibroblasts modeled by human mesenchymal stem cells (MSCs). The concentration ranges selected for each drug and investigational agent were based upon clinically achievable concentrations if the clinical Cmax of the agent was known.
Compounds. The drugs and investigational agents: BI-3406 (NSC825286), BAY-293 (NSC824723), batoprotafib (TNO155; NSC825523), sotorasib (AMG 510; NSC818433), MRTX1257 (NSC819558), elimusertib (BAY 1895344; NSC800525), molibresib (GSK525762; NSC774829), temuterkib (LY3214996; NSC803410), venetoclax (NSC766270), alisertib (NSC759677), olaparib (NSC753686), talazoparib (NSC767125), erdafitinib (NSC781556), ipatasertib (NSC767898), cabozantinib (NSC761068), nintedanib (NSC756659), abemaciclib (NSC768073), docetaxel (NSC628503), trametinib (NSC758246), and sapanisertib (NSC764658) were obtained from the National Cancer Institute (NCI) Developmental Therapeutics Program Chemical Repository. The FDA-approved anticancer drug set is available from the Developmental Therapeutics Program. […] The stock solutions were prepared in dimethyl sulfoxide (DMSO, Sigma-Aldrich, St. Louis, MO, cat. D2650) at 800-fold the tested concentration and stored at -70 degrees C prior to their use. All drugs and investigational agents were tested over a range starting from a high concentration at or near the clinical Cmax and decreasing in half-log increments. If the clinical Cmax for an agent had not been determined, the highest concentration tested was 10 microM.
Cell Culture. All cells were maintained in an incubator at 37 degrees C and 5% CO2 with 95% humidity. The PDC lines were cultured according to standard operating procedures established by the NCI PDMR (https://pdmr.cancer.gov/sops/default.htm). Briefly, all PDCs were thawed and cultured in Matrigel-coated flasks prepared with a working solution of 1X Ham's F-12 nutrient mix, without supplementation (Invitrogen, Waltham, MA, cat. 11765054), 100 U/mL penicillin-streptomycin (Invitrogen, cat. 15140122), and 2.5% Matrigel (Corning Inc., Corning, NY, cat. 354248) for the first three passages. All PDCs were cultured in complete DMEM/F-12 media containing advanced DMEM/F-12 (Invitrogen, cat. 12634028), 4.9% defined fetal bovine serum, heat inactivated (HyClone Laboratories Inc., Logan, UT, cat. SH30070.03HI), 389 ng/mL hydrocortisone (Sigma-Aldrich, cat. H4001), 9.7 ng/mL human EGF recombinant protein (Invitrogen, cat. PHG0313), 23.4 microg/mL adenine (Sigma-Aldrich, cat. A2786), 97.3 U/mL penicillin-streptomycin (Invitrogen, cat. 15140122), 1.9 mM L-glutamine (Invitrogen, cat. 25030081), and 9.7 microM Y-27632 dihydrochloride (Tocris Bioscience, Bristol, United Kingdom, cat. 1254). The PDCs were cultured in complete DMEM/F12 media without 9.7 microM Y-27632 dihydrochloride for at least two passages prior to the screen. The established cell line HOP-62 was cultured in RPMI 1640 medium, HEPES (Invitrogen, cat. 22400105) with 10% defined fetal bovine serum (HyClone Laboratories Inc., cat. SH30070.03) and 2 mM L-glutamine (Invitrogen, cat. 25030081). The pooled donor HUVEC were cultured in endothelial cell growth medium 2 (PromoCell, Heidelberg, Germany, cat. C-22011) and the hMSC were cultured in mesenchymal stem cell growth medium 2 (PromoCell, cat. C-28009). For all experiments, HUVEC and hMSC were used at passages </=5, while the malignant cell lines were used at passages </=15. […]

**Q.** Which viability, T/C (compound 0.01 µM) does the source give for `CC(=O)OC12COC1CC(O)C1(C)C(=O)C(O)C3=C(C)C(OC(=O)C(O)C(NC(=O)OC(C)(C)C)c4ccccc4)CC(O)(C(OC(=O)c4ccccc4)C21)C3(C)C` (configuration not stated) here?
**A.** 41% [middle of 5 runs]

**Q.** And the viability, T/C (compound 0.0316 µM)?
**A.** 36.9% [middle of 5 runs]

**Q.** What about the viability, T/C (compound 0.1 µM) of the same compound?
**A.** 36.1% [middle of 5 runs]

**Q.** What about the viability, T/C (compound 0.316 µM) of the same compound?
**A.** 39.6% [middle of 5 runs]

**Q.** And the viability, T/C (compound 1 µM)?
**A.** 42% [middle of 5 runs]

**Q.** And the viability, T/C (compound 3.16 µM)?
**A.** 42.9% [middle of 5 runs]

**Q.** What about the IC50 (curve of compound) of the same compound?
**A.** < 0.01 µM

**Q.** For `O=C(c1cc(Cc2n[nH]c(=O)c3ccccc23)ccc1F)N1CCN(C(=O)C2CC2)CC1` + COc1cc2nc(C)nc(NC(C)c3cc(N)cc(C(F)(F)F)c3)c2cc1OC1CCOC1, which IC50 (curve of first compound, second compound 0.1 µM) is on record?
**A.** > 10 µM

**Q.** What about the IC50 (curve of first compound, second compound 0.316 µM) of the same compound?
**A.** 7.02 µM

**Q.** What about the IC50 (curve of first compound, second compound 1 µM) of the same compound?
**A.** > 10 µM

**Q.** What about the IC50 (curve of first compound, second compound 3.16 µM) of the same compound?
**A.** 4.69 µM

**Q.** And the IC50 (curve of first compound, second compound 10 µM)?
**A.** 0.0974 µM

**Q.** What about the viability, T/C (second compound 0.1 µM, first compound 0.0316 µM) of the same compound?
**A.** 99.5%

**Q.** And the viability, T/C (second compound 0.1 µM, first compound 0.1 µM)?
**A.** 102%

**Q.** What about the viability, T/C (second compound 0.1 µM, first compound 0.316 µM) of the same compound?
**A.** 106%

**Q.** And the viability, T/C (second compound 0.1 µM, first compound 1 µM)?
**A.** 102%

**Q.** And the viability, T/C (second compound 0.1 µM, first compound 3.16 µM)?
**A.** 85.1%

**Q.** What about the viability, T/C (second compound 0.1 µM, first compound 10 µM) of the same compound?
**A.** 52.7%

**Q.** And the viability, T/C (second compound 0.316 µM, first compound 0.0316 µM)?
**A.** 90.8%

**Q.** What about the viability, T/C (second compound 0.316 µM, first compound 0.1 µM) of the same compound?
**A.** 85.6%

**Q.** What about the viability, T/C (second compound 0.316 µM, first compound 0.316 µM) of the same compound?
**A.** 83.3%

**Q.** And the viability, T/C (second compound 0.316 µM, first compound 1 µM)?
**A.** 92.3%

**Q.** What about the viability, T/C (second compound 0.316 µM, first compound 3.16 µM) of the same compound?
**A.** 67.9%

**Q.** And the viability, T/C (second compound 0.316 µM, first compound 10 µM)?
**A.** 42%

**Q.** And the viability, T/C (second compound 1 µM, first compound 0.0316 µM)?
**A.** 102%

**Q.** What about the viability, T/C (second compound 1 µM, first compound 0.1 µM) of the same compound?
**A.** 98.2%

**Q.** What about the viability, T/C (second compound 1 µM, first compound 0.316 µM) of the same compound?
**A.** 93.4%

**Q.** What about the viability, T/C (second compound 1 µM, first compound 1 µM) of the same compound?
**A.** 94.6%

**Q.** What about the viability, T/C (second compound 1 µM, first compound 3.16 µM) of the same compound?
**A.** 85.4%

**Q.** And the viability, T/C (second compound 1 µM, first compound 10 µM)?
**A.** 50.5%

**Q.** And the viability, T/C (second compound 3.16 µM, first compound 0.0316 µM)?
**A.** 77%

**Q.** What about the viability, T/C (second compound 3.16 µM, first compound 0.1 µM) of the same compound?
**A.** 61.9%

**Q.** And the viability, T/C (second compound 3.16 µM, first compound 0.316 µM)?
**A.** 64%

**Q.** And the viability, T/C (second compound 3.16 µM, first compound 1 µM)?
**A.** 69.3%

**Q.** What about the viability, T/C (second compound 3.16 µM, first compound 3.16 µM) of the same compound?
**A.** 56.3%

**Q.** What about the viability, T/C (second compound 3.16 µM, first compound 10 µM) of the same compound?
**A.** 36.1%

**Q.** And the viability, T/C (second compound 10 µM, first compound 0.0316 µM)?
**A.** 97.5%

**Q.** What about the viability, T/C (second compound 10 µM, first compound 0.1 µM) of the same compound?
**A.** 45.3%

**Q.** What about the viability, T/C (second compound 10 µM, first compound 0.316 µM) of the same compound?
**A.** 55.5%

**Q.** And the viability, T/C (second compound 10 µM, first compound 1 µM)?
**A.** 60.9%

**Q.** And the viability, T/C (second compound 10 µM, first compound 3.16 µM)?
**A.** 47%

**Q.** What about the viability, T/C (second compound 10 µM, first compound 10 µM) of the same compound?
**A.** 35.1%
